Results reported in ChEMBL document CHEMBL2203217, “Prohormone-substrate peptide sequence recognition by peptidylglycine α-amidating monooxygenase and its reflection in increased glycolate inhibitor potency” (Bioorg Med Chem Lett, 2012).

Assays:
[1] = biological target: T1, Peptidyl-glycine alpha-amidating monooxygenase (Homo sapiens, UniProt P19021); experiment: Competitive inhibition of secreted PAM in human DMS53 cell culture medium using as(R)-Tyr-(S)-Val-Gly as substrate after 2 hrs by HPLC analysis; design: species or system DMS-53
T1 sequence (P19021 whole entry): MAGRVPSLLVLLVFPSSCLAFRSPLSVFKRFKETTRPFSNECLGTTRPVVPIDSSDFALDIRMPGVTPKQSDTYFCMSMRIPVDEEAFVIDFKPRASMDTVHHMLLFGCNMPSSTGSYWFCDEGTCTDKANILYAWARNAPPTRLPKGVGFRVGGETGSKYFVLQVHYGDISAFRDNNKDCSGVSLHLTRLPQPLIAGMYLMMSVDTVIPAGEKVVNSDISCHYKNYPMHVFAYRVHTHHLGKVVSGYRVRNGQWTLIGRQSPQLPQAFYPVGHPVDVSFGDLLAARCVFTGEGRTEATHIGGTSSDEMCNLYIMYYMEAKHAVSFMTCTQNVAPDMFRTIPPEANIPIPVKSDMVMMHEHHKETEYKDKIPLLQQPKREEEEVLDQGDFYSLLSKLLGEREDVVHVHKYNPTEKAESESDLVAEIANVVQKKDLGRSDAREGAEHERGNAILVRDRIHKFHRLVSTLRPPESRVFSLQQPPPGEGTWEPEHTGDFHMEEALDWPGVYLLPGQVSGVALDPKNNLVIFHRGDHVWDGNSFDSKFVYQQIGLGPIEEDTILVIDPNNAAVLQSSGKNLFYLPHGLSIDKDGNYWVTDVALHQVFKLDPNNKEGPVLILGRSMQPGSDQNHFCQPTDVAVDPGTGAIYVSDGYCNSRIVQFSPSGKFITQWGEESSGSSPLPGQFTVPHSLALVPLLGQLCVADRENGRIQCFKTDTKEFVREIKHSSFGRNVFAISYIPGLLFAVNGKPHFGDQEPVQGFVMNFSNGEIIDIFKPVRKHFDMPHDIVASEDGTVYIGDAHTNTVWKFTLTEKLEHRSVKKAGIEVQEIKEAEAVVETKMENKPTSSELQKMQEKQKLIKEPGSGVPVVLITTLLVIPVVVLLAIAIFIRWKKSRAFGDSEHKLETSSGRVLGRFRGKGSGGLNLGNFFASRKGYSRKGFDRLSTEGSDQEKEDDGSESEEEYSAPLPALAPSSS

[2] = biological target: T1, Peptidyl-glycine alpha-amidating monooxygenase; experiment: Competitive inhibition of PAM in human DMS53 cells using as(R)-Tyr-(S)-Val-Gly as substrate after 2 hrs by HPLC analysis; assay type: cell-based, DMS-53

| SMILES | IC50 [1] [µM] | IC50 [2] [µM] |
| --- | --- | --- |
| C[C@H](NC(=O)CN)C(=O)N1CCC[C@H]1C(=O)OCC(=O)O | 1100 | 980 |
| O=C(O)COC(=O)[C@@H]1CCCN1 | 500 | 600 |
| C[C@H](N)C(=O)N[C@@H](Cc1ccccc1)C(=O)OCC(=O)O | 370 | 350 |

Continued, values first:

| IC50 [1] [µM] | IC50 [2] [µM] | SMILES |
| --- | --- | --- |
| 1800 | 210 | CC(=O)NCC(=O)OCC(=O)O |
| 200 | 120 | CC(=O)N[C@@H](CC(C)C)C(=O)NCC(=O)OCC(=O)O |
